#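 Cultured in 96-well plates, cells were exposed to test compound for 48 hours across five concentrations. GI50 is the concentration that inhibits growth by half. TGI is the concentration that stops growth completely.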
# Legend:
# Test in all cases: NCI anticancer screen, dose series, 48 h
# 786-0 renal = system: 786-0 renal
# A498 renal = system: A498 renal
# A549 NSCLC = system: A549 NSCLC
# ACHN renal = system: ACHN renal
# BT-549 breast = system: BT-549 breast
# CAKI-1 renal = system: CAKI-1 renal
# CCRF-CEM leukemia = system: CCRF-CEM leukemia
# COLO 205 colon = system: COLO 205 colon
# DU-145 prostate = system: DU-145 prostate
# EKVX NSCLC = system: EKVX NSCLC
# HCC-2998 colon = system: HCC-2998 colon
# HCT-15 colon = system: HCT-15 colon
# HL-60(TB) leukemia = system: HL-60(TB) leukemia
# HOP-62 NSCLC = system: HOP-62 NSCLC
# HOP-92 NSCLC = system: HOP-92 NSCLC
# HS 578T breast = system: HS 578T breast
# HT29 colon = system: HT29 colon
# IGROV1 ovarian = system: IGROV1 ovarian
# K-562 leukemia = system: K-562 leukemia
# M14 melanoma = system: M14 melanoma
# MALME-3M melanoma = system: MALME-3M melanoma
# MCF7 breast = system: MCF7 breast
# MDA-MB-231 breast = system: MDA-MB-231 breast
# MOLT-4 leukemia = system: MOLT-4 leukemia
# NCI-H226 lung = system: NCI-H226 lung
# NCI-H460 lung = system: NCI-H460 lung
# NCI/ADR-RES ovarian = system: NCI/ADR-RES ovarian
# OVCAR-3 ovarian = system: OVCAR-3 ovarian
# OVCAR-4 ovarian = system: OVCAR-4 ovarian
# OVCAR-5 ovarian = system: OVCAR-5 ovarian
# PC-3 prostate = system: PC-3 prostate
# RPMI-8226 leukemia = system: RPMI-8226 leukemia
# RXF 393 renal = system: RXF 393 renal
# SF-268 CNS = system: SF-268 CNS
# SF-295 CNS = system: SF-295 CNS
# SF-539 CNS = system: SF-539 CNS
# SK-MEL-2 melanoma = system: SK-MEL-2 melanoma
# SK-MEL-28 melanoma = system: SK-MEL-28 melanoma
# SK-MEL-5 melanoma = system: SK-MEL-5 melanoma
# SK-OV-3 ovarian = system: SK-OV-3 ovarian
# SN12C renal = system: SN12C renal
# SNB-19 CNS = system: SNB-19 CNS
# SNB-75 CNS = system: SNB-75 CNS
# SR leukemia = system: SR leukemia
# SW-620 colon = system: SW-620 colon
# T-47D breast = system: T-47D breast
# TK-10 renal = system: TK-10 renal
# U251 CNS = system: U251 CNS
# UACC-257 melanoma = system: UACC-257 melanoma
# UACC-62 melanoma = system: UACC-62 melanoma
# UO-31 renal = system: UO-31 renal
smiles,measurement,setting,value
COc1ccc2[nH]cc(-c3csc4nc(-c5ccccc5)cn34)c2c1,GI50,786-0 renal,599 nM
same,TGI,786-0 renal,> 19900 nM
same,GI50,A498 renal,3730 nM
same,GI50,A549 NSCLC,891 nM
same,TGI,A549 NSCLC,> 88400 nM
same,GI50,ACHN renal,612 nM
same,TGI,ACHN renal,20600 nM
same,GI50,BT-549 breast,508 nM
same,TGI,BT-549 breast,4800 nM
same,GI50,CAKI-1 renal,404 nM
same,TGI,CAKI-1 renal,12100 nM
same,GI50,CCRF-CEM leukemia,248 nM
same,TGI,CCRF-CEM leukemia,> 100000 nM
same,GI50,COLO 205 colon,334 nM
same,TGI,COLO 205 colon,1150 nM
same,GI50,DU-145 prostate,576 nM
same,TGI,DU-145 prostate,> 100000 nM
same,GI50,EKVX NSCLC,804 nM
same,TGI,EKVX NSCLC,> 100000 nM
same,GI50,HCC-2998 colon,602 nM
same,TGI,HCC-2998 colon,3750 nM
same,GI50,HCT-15 colon,242 nM
same,TGI,HCT-15 colon,> 23100 nM
same,GI50,HL-60(TB) leukemia,287 nM
same,TGI,HL-60(TB) leukemia,> 100000 nM
same,GI50,HOP-62 NSCLC,579 nM
same,TGI,HOP-62 NSCLC,19100 nM
same,GI50,HOP-92 NSCLC,424 nM
same,TGI,HOP-92 NSCLC,5300 nM
same,GI50,HS 578T breast,328 nM
same,TGI,HS 578T breast,10300 nM
same,GI50,HT29 colon,324 nM
same,TGI,HT29 colon,1120 nM
same,GI50,IGROV1 ovarian,477 nM
same,TGI,IGROV1 ovarian,> 100000 nM
same,GI50,K-562 leukemia,139 nM
same,TGI,K-562 leukemia,> 100000 nM
same,GI50,M14 melanoma,295 nM
same,TGI,M14 melanoma,> 100000 nM
same,GI50,MALME-3M melanoma,492 nM
same,TGI,MALME-3M melanoma,31800 nM
same,GI50,MCF7 breast,276 nM
same,TGI,MCF7 breast,> 100000 nM
same,GI50,MDA-MB-231 breast,524 nM
same,TGI,MDA-MB-231 breast,> 100000 nM
same,GI50,MOLT-4 leukemia,440 nM
same,TGI,MOLT-4 leukemia,> 51900 nM
same,GI50,NCI-H226 lung,947 nM
same,TGI,NCI-H226 lung,5760 nM
same,GI50,NCI-H460 lung,374 nM
same,TGI,NCI-H460 lung,2530 nM
same,GI50,NCI/ADR-RES ovarian,252 nM
same,TGI,NCI/ADR-RES ovarian,1320 nM
same,GI50,OVCAR-3 ovarian,355 nM
same,TGI,OVCAR-3 ovarian,3320 nM
same,GI50,OVCAR-4 ovarian,2220 nM
same,TGI,OVCAR-4 ovarian,> 100000 nM
same,GI50,OVCAR-5 ovarian,709 nM
same,TGI,OVCAR-5 ovarian,> 100000 nM
same,GI50,PC-3 prostate,412 nM
same,TGI,PC-3 prostate,> 100000 nM
same,GI50,RPMI-8226 leukemia,416 nM
same,TGI,RPMI-8226 leukemia,3860 nM
same,GI50,RXF 393 renal,553 nM
same,TGI,RXF 393 renal,4770 nM
same,GI50,SF-268 CNS,823 nM
same,TGI,SF-268 CNS,> 80800 nM
same,GI50,SF-295 CNS,395 nM
same,TGI,SF-295 CNS,4240 nM
same,GI50,SF-539 CNS,359 nM
same,TGI,SF-539 CNS,1830 nM
same,GI50,SK-MEL-2 melanoma,291 nM
same,TGI,SK-MEL-2 melanoma,851 nM
same,GI50,SK-MEL-28 melanoma,724 nM
same,TGI,SK-MEL-28 melanoma,> 90200 nM
same,GI50,SK-MEL-5 melanoma,407 nM
same,TGI,SK-MEL-5 melanoma,3640 nM
same,GI50,SK-OV-3 ovarian,489 nM
same,TGI,SK-OV-3 ovarian,> 43900 nM
same,GI50,SN12C renal,470 nM
same,TGI,SN12C renal,> 100000 nM
same,GI50,SNB-19 CNS,616 nM
same,TGI,SNB-19 CNS,> 100000 nM
same,GI50,SNB-75 CNS,240 nM
same,TGI,SNB-75 CNS,779 nM
same,GI50,SR leukemia,66 nM
same,TGI,SR leukemia,> 100000 nM
same,GI50,SW-620 colon,360 nM
same,TGI,SW-620 colon,> 100000 nM
same,GI50,T-47D breast,382 nM
same,TGI,T-47D breast,> 100000 nM
same,GI50,TK-10 renal,6970 nM
same,TGI,TK-10 renal,42600 nM
same,GI50,U251 CNS,401 nM
same,GI50,UACC-257 melanoma,525 nM
same,TGI,UACC-257 melanoma,> 100000 nM
same,GI50,UACC-62 melanoma,327 nM
same,TGI,UACC-62 melanoma,20800 nM
same,GI50,UO-31 renal,465 nM
same,TGI,UO-31 renal,32000 nM

# — PubChem BioAssay (NCI)
